US20090105126A1 (priority 2007, published 2009)
Several values for one entry are separate records, joined by “and”; a condition that tells them apart may be missing. Equal entries are not always repeated. Where two headings read alike, the source gives them in different places.

Experiments:
[1] = Fluorescence anisotropy of entrapped calcein; assay type: physicochemical; settings: calcein probe, excitation 495 nm, emission 520 nm; higher value = more viscous
Method: DPPC was added by ethanol injection to make 5 mg/ml liposome at 50° C. […] Fluorescence anisotropy was measured at an excitation wavelength of 495 nm and emission wavelength of 520 nm. Fluorescence anisotropy is an order parameter, which ranged from 0 to 0.4 in aqueous solution. The higher value indicates more viscous solution.

[2] = test system: S. pneumoniae (ATCC 6303); settings: for Log CFU/Lung, animals n/N (second line of cell) / Log CFU/mL of Blood, animals n/N (second line of cell) / Log CFU/mL of Blood: Inhalation, BID x 3; for Log CFU/mL of Blood: animals surviving until Day 7; for mice in which S. pneumoniae in the lungs was not eradicated: mice surviving to day 7
Method: Sixty (60) Thirty six (36) female mice (Swiss Webster, Charles River) were received in the vivarium and acclimated for at least 7 days prior to initiation of the protocol. All mice were instilled via nasal insufflation with S. pneumoniae (ATCC, 6303, 4.1×10^4 CFU/ mice) after being anesthetized with Ketamine/Xylazine solution (80 mg/kg and 10 mg/kg). The instillation was performed through the nostrils route using micropipette with tips (Gilson, calibrated with Femt Scientific). The mouse is held by its ears and 20 μl of bacteria are gradually (2 μl per breath) released into the nostrils (10 μl in each nostril) with the help of a micro-pipette. The mice were observed every 10 min until they fully recovered from the anesthesia.
Mice were dosed on days 1, 2 and 3. There were 5 groups and each group had 12 mice. […] Mice in group 5 received sterile normal saline (0.9% NaCl) by inhalation.
Determination of bacterial colonies in the lung and blood of mice. Mice that were euthanized prior to day 7 and mice that survived to day 7 were euthanized by CO2 asphyxiation. The blood was collected by cardiac puncture after euthanization. A 1/10 dilution of blood was made in BHI broth immediately. The lungs were removed aseptically, weighed and placed into 1 ml of BHI broth in a sterile 5 ml Polypropylene round-bottom tube.
Lungs were homogenized sterilely with a Polytron^R (Brinkmann, Rexdale, Ontario, Canada) using the maximum speed in the 5 ml Polypropylene round-bottom tube. The tissues were homogenized until a smooth. Ten-fold dilutions of the lung homogenates were made in BHI broth supplemented with 10 ug/ml of Colistin(C) 5 ug/ml of Oxolinic (O). One hundred (100) ul of each dilution of lung homogenates were plated out onto CBO agar plates and spread. The plates were incubated for 24 hours at 37° C. then colonies were counted.

[3] = test system: S. pneumoniae (ATCC 6303)
Method: Thirty six (36) female mice (Swiss Webster, Charles River) were received in the vivarium and acclimated for at least 7 days prior to initiation of the protocol. […] Mice were dosed on days 1, 2 and 3. […] Mice in Group 3 received 20 min inhalation with sterile 0.9% NaCl for inhalation (Cardinal, Lot #WBA194). Euthanization and determination of bacterial colonies in blood and lungs were performed as described in Example 8.

[4] = Concentration of vancomycin in the lungs of mice after inhalation therapy (Example 8); settings: for [VANCOMYCIN] in Lung, animals n/N (second line of cell): Inhalation, BID x 3; for Vancomycin (μg/g), mean / Vancomycin (μg/lung), mean / Vancomycin (μg/g), individual mice / Vancomycin (μg/lung), individual mice: 4 days after inhalation therapy; for Vancomycin (μg/g), mean / Vancomycin (μg/lung), mean: group mean; for Vancomycin (μg/g), individual mice / Vancomycin (μg/lung), individual mice: listed as Soluble Vancomycin
Method: The instillation was performed through the nostrils route using micropipette with tips (Gilson, calibrated with Femt Scientific). The mouse is held by its ears and 20 μl of bacteria are gradually (2 μl per breath) released into the nostrils (10 μl in each nostril) with the help of a micro-pipette. The mice were observed every 10 min until they fully recovered from the anesthesia.
There were 5 groups and each group had 12 mice. […] Mice in group 5 received sterile normal saline (0.9% NaCl) by inhalation.

[5] = Intraperitoneal, BID x 3, 12 mg/kg/day
[6] = Intraperitoneal, BID x 3, 12 mg/kg/day, animals surviving until Day 7
[7] = intraperitoneal injection 6 mg/kg BID

SMILES: CN[C@H](CC(C)C)C(=O)N[C@H]1C(=O)N[C@@H](CC(N)=O)C(=O)N[C@H]2C(=O)N[C@H]3C(=O)N[C@H](C(=O)N[C@H](C(=O)O)c4cc(O)cc(O)c4-c4cc3ccc4O)[C@H](O)c3ccc(c(Cl)c3)Oc3cc2cc(c3O[C@@H]2O[C@H](CO)[C@@H](O)[C@H](O)[C@H]2O[C@H]2C[C@](C)(N)[C@H](O)[C@H](C)O2)Oc2ccc(cc2Cl)[C@H]1O [Vancomycin solution (15 mg/ml), vancomycin]
- Fluorescence anisotropy [1]: 0.014

SMILES: CN[C@H](CC(C)C)C(=O)N[C@H]1C(=O)N[C@@H](CC(N)=O)C(=O)N[C@H]2C(=O)N[C@H]3C(=O)N[C@H](C(=O)N[C@H](C(=O)O)c4cc(O)cc(O)c4-c4cc3ccc4O)[C@H](O)c3ccc(c(Cl)c3)Oc3cc2cc(c3O[C@@H]2O[C@H](CO)[C@@H](O)[C@H](O)[C@H]2O[C@H]2C[C@](C)(N)[C@H](O)[C@H](C)O2)Oc2ccc(cc2Cl)[C@H]1O [Vancomycin solution (300 mg/ml), vancomycin]
- Fluorescence anisotropy [1]: 0.17

SMILES: CN[C@H](CC(C)C)C(=O)N[C@H]1C(=O)N[C@@H](CC(N)=O)C(=O)N[C@H]2C(=O)N[C@H]3C(=O)N[C@H](C(=O)N[C@H](C(=O)O)c4cc(O)cc(O)c4-c4cc3ccc4O)[C@H](O)c3ccc(c(Cl)c3)Oc3cc2cc(c3O[C@@H]2O[C@H](CO)[C@@H](O)[C@H](O)[C@H]2O[C@H]2C[C@](C)(N)[C@H](O)[C@H](C)O2)Oc2ccc(cc2Cl)[C@H]1O [Vancomycin, vancomycin]
- mice showing bacterial level in lungs ([2]; 3.8 mg/kg/day, 7 days, FIG. 8): > 90%
- bacterial level in lungs ([2]; 6.0 mg/kg/day, 7 days, FIG. 8): still showed substantial bacterial level
- Log CFU/Lung, animals n/N (second line of cell) ([2]; 3.8 mg/kg/day): 11/12
- Log CFU/mL of Blood, animals n/N (second line of cell) ([2]; 3.8 mg/kg/day): 0/12
- Log CFU/mL of Blood ([2]; 3.8 mg/kg/day): 0 Log CFU/mL
- Log CFU/Lung, animals n/N (second line of cell) ([2]; 6.0 mg/kg/day): 12/12
- Log CFU/mL of Blood, animals n/N (second line of cell) ([2]; 6.0 mg/kg/day): 0/12
- Log CFU/mL of Blood ([2]; 6.0 mg/kg/day): 0 Log CFU/mL
- Log10 CFU/lung, individual mice ([2]; inhalation 3.8 mg/kg for 3 days, day 7, 1 = limit of detection, no colonies detected): 1 Log10 CFU/lung and 2 Log10 CFU/lung
- mice in which S. pneumoniae in the lungs was not eradicated ([2]; inhaled 3.8 mg/kg): 92%
- bacteria in blood ([2]; inhaled 6 mg/kg and 3.8 mg/kg, day 7): no bacteria in their blood
- mice in which S. pneumoniae in the lungs was not eradicated ([2]; inhaled 6 mg/kg): 100%
- Survival ([2]; inhaled, 6 or 3.8 mg/kg/day on days 1, 2 and 3, 12 mice per group, FIG. 4): 100%
- vancomycin in the lungs (IP 12 mg/kg/day, day seven, listed as free vancomycin, 12 mg/kg/day): no vancomycin deposition in lung was detected
- vancomycin in the lungs (IP injections, 4 days after the end of therapy): No detectable concentrations
- initial daily lung dose (IP, based on 4% of the delivered dose in the lungs 30 min post IP injections): 15 ug of vancomycin/lung
- [VANCOMYCIN] in Lung, animals n/N (second line of cell) [5]: 0/12
- [VANCOMYCIN] in Lung [6]: 0 mg/g
- vancomycin after IP injection (Six (6) hours after IP injection, Swiss Webster mice): no detectable vancomycin was observed
- Log CFU/Lung, animals n/N (second line of cell) [3, 5]: 3/12
- Log CFU/mL of Blood, animals n/N (second line of cell) [3, 5]: 5/12
- Log CFU/Lung [3, 6]: 0.7 ± 1.3 Log CFU/Lung
- Log CFU/mL of Blood [3, 6]: 1.7 ± 2.1 Log CFU/mL
- mice in which S. pneumoniae in the lungs was not eradicated [3, 7]: 25%
- mice in which S. pneumoniae was not eradicated from the blood [3, 7]: 42%
- mice surviving to day 7 ([3]; intraperitoneal injection 6 mg/kg BID, days 1, 2 and 3, n=12): 100%
- [VANCOMYCIN] in Lung, animals n/N (second line of cell) ([4]; 3.8 mg/kg/day): 12/12
- [VANCOMYCIN] in Lung, animals n/N (second line of cell) ([4]; 6.0 mg/kg/day): 12/12
- Vancomycin (μg/g), mean ([4]; inhaled 3.8 mg/kg): 34 µg/g
- Vancomycin (μg/lung), mean ([4]; inhaled 3.8 mg/kg): 5 μg/lung
- Vancomycin (μg/g), individual mice ([4]; inhaled 3.8 mg/kg): 14.0 µg/g and 37.0 µg/g
- Vancomycin (μg/lung), individual mice ([4]; inhaled 3.8 mg/kg): 5.8 μg/lung and 5.2 μg/lung (2×) and 6.8 μg/lung and 3.4 μg/lung and 4.7 μg/lung (2×) and 5.9 μg/lung and 2.0 μg/lung and 3.6 μg/lung and 8.1 μg/lung and 6.1 μg/lung
- Vancomycin (μg/g), mean ([4]; inhaled 6 mg/kg): 61 µg/g
- Vancomycin (μg/lung), mean ([4]; inhaled 6 mg/kg): 10 μg/lung
- Vancomycin (μg/g), individual mice ([4]; inhaled 6 mg/kg): 42.0 µg/g and 59.0 µg/g and 66.0 µg/g
- Vancomycin (μg/lung), individual mice ([4]; inhaled 6 mg/kg): 7.6 μg/lung and 8.8 μg/lung and 6.4 μg/lung and 9.7 μg/lung and 9.0 μg/lung and 9.3 μg/lung and 8.3 μg/lung and 14.0 μg/lung and 9.8 μg/lung
